Here are results for 15 compounds from patent US20230357179A1, “RAF KINASE INHIBITORS AND METHODS OF USE THEREOF” (Deciphera Pharmaceuticals, LLC, priority 2021, published 2023).

The target in assay [1] is T1, B-Raf kinase (Homo sapiens, UniProt P15056).
T1 construct: GST (N); purchased Sigma
Kind of assay: Biochemical assay for B-Raf.1 (coupled pyruvate kinase/lactate dehydrogenase). The note with it: read-out: BRAF.1 IC50. The method in brief: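 NADH oxidation followed at 340 nm in a pyruvate kinase/lactate dehydrogenase-coupled assay with 0.13 nM B-Raf, 30.1 nM MEK substrate, 1 mM ATP, pH 7.5 Tris buffer, 1% DMSO. Monitored 6 h at 30 °C; rate taken from 4–5 h. IC50 from four-parameter sigmoidal fit.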

Assay [2] relates to A375 cells. Kind of assay: A375 cell proliferation assay (1), resazurin, 96-well. As to conditions: Homo sapiens, A-375, inhibition of cell proliferation. The assay is classed as cell-based. The method in brief: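 Viability was read by resazurin fluorescence at 540 nm excitation and 600 nm emission, using a 440 μM solution added for 5–6 h at the end of culture. IC50 came from the curve fit.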
Background: The colour change of resazurin is a common sign of viable cells or microbes.

In assay [3] the test system is WM3928 cells. Kind of assay: WM3928 cell proliferation assay (1), resazurin, 96-well. In kind it is cell-based. The note with it: inhibition of cell proliferation. The method in brief:
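IC50 was derived from resazurin fluorescence (ex 540, em 600 nm) after a 6–7 h dye incubation. Before that, cells had 67–72 h of compound exposure at 37 °C, 5% CO2.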

Assay [4] concerns Miapaca-2 cells. Kind of assay: MiaPaca-2 cell proliferation assay (1), resazurin, 96-well. In kind it is cell-based. As to conditions: Homo sapiens, MIA PaCa-2, inhibition of cell proliferation. The method in brief: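 Three thousand cells per well in DMEM with 10% FBS and 2.5% horse serum exposed to serially diluted compound in triplicate for 67-72 h at 37 °C, 5% CO2. Viability by resazurin (additional 5-6 h), fluorescence ex 540/em 600 nm; IC50 calculated.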

pIC50: −log10 of the molar value.

Usually pIC50 stands for the negative decadic logarithm of the IC50, by convention in mol/L.

T1 sequence (P15056 416-766): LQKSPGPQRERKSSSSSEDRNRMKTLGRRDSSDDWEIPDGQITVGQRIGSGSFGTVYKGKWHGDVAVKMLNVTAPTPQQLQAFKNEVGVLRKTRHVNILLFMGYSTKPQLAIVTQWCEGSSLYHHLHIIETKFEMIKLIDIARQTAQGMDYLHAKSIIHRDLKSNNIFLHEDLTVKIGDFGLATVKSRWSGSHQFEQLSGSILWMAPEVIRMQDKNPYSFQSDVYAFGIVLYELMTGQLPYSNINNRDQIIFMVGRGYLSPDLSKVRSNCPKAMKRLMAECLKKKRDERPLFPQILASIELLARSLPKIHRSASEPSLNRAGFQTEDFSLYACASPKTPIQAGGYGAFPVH

For `Cc1cc(F)c(NC(=O)NCCC(C)(C)C#N)cc1-c1cccc(-c2cc(NC(=O)C3CC3)ncn2)c1` [Example 67], the pIC50 is at least 7.00 in assay [1], 5.00 to 6.00 in assay [2], 5.00 to 6.00 in assay [3] and 5.00 to 6.00 in assay [4].
In the case of `Cc1ccc(NC(=O)N2CC[C@H](C(F)(F)F)C2)cc1-c1cncc(-c2cc(NC(=O)C3CC3)ncn2)c1` [Example 195], the pIC50 in assay [1] is at least 7.00; in assay [2] it was 6.30 to 7.00; in assay [3], at least 7.00; in assay [4] it was 5.00 to 6.00.
Consider `Cc1cc(F)c(NC(=O)NCCC2(C)CC2)cc1-c1cccc(-c2ccnc(NC(=O)C3CC3)c2)c1` [Example 64], for which the pIC50 in assay [1] was at least 7.00; in assay [2], 5.00 to 6.00; in assay [3], 6.30 to 7.00; in assay [4], 5.00 to 6.00.
Regarding `Cc1cc(F)c(NC(=O)NCCC2(C)CC2)cc1-c1cc(OCC(C)(C)O)nc(-c2ccncc2)c1` [Example 34], the pIC50 is at least 7.00 in assay [1], 5.00 to 6.00 in assay [2], 6.30 to 7.00 in assay [3] and 5.00 to 6.00 in assay [4].
`Cc1ccc(NC(=O)N2CC[C@@H](C(F)(F)F)C2)cc1-c1cccc(-c2cc(NC(=O)C3CC3)ncn2)c1` [Example 201]: the pIC50 in assay [1] was at least 7.00; in assay [2] it was 6.00 to 6.30; in assay [3], 6.30 to 7.00; in assay [4] it was 5.00 to 6.00.
Regarding `Cc1ccc(NC(=O)N2CCC(C(F)(F)F)C2)cc1-c1cccc(-c2cc(NC(=O)C3CC3)ncn2)c1` (stereo not drawn) [Example 73], the pIC50 in assay [1] was at least 7.00; in assay [2], 6.30 to 7.00; in assay [3], at least 7.00; in assay [4], 5.00 to 6.00.
As to `COC(C)(C)CCNC(=O)Nc1cc(-c2nccc(-c3ccnc(NC(=O)C4CC4)c3)n2)c(C)cc1F` [Example 83], the pIC50 in assay [1] was at least 7.00; in assay [2], 5.00 to 6.00; in assay [3], 6.30 to 7.00; in assay [4] it was 5.00 to 6.00.
As to `Cc1cc(F)c(NC(=O)NCCC(C)(C)C#N)cc1-c1cc(N2CCOCC2)nc(N2CCOCC2)c1` [Example 22], the pIC50 in assay [1] was 6.30 to 7.00; in assay [2], 5.00 to 6.00; in assay [3], 5.00 to 6.00; in assay [4], 5.00 to 6.00.
Consider `Cc1cc(F)c(NC(=O)NCCC2(C)CC2)cc1-c1cc(OCCO)nc(-c2ccnc(NC(=O)C3CC3)c2)c1` [Example 76], for which the pIC50 in assay [1] was at least 7.00; in assay [2], at least 7.00; in assay [3], at least 7.00; in assay [4], 5.00 to 6.00.
For `Cc1cc(F)c(NC(=O)NCCC2(C(F)(F)F)CC2)cc1-c1cc(N2CCOCC2)nc(N2CCOCC2)c1` [Example 23], the pIC50 is at least 7.00 in assay [1], 6.00 to 6.30 in assay [2], 6.30 to 7.00 in assay [3] and 5.00 to 6.00 in assay [4].
For `Cc1cc(F)c(NC(=O)N2CC[C@H](C(F)(F)F)C2)cc1-c1cncc(-c2cc(NC(=O)C3CC3)ncn2)c1` [Example 216], the pIC50 in assay [1] is at least 7.00; in assay [2], 6.30 to 7.00; in assay [3], at least 7.00; in assay [4], 5.00 to 6.00.
With `Cc1ncc(NC(=O)NCCC2(C)CC2)cc1-c1nccc(-c2ccnc(NC(=O)C3CC3)c2)n1` [Example 81], the pIC50 is at least 7.00 in assay [1], 5.00 to 6.00 in assay [2], 6.00 to 6.30 in assay [3] and 5.00 to 6.00 in assay [4].
On to `COC1(CCNC(=O)Nc2cnc(C)c(-c3cccc(-c4cc(NC(=O)C5CC5)ncn4)c3)c2)CC1` [Example 84], for which the pIC50 in assay [1] was at least 7.00; in assay [2] it was 5.00 to 6.00; in assay [3], 6.00 to 6.30; in assay [4], 5.00 to 6.00.
Consider `Cc1cc(F)c(NC(=O)NCCC(C)(C)C#N)cc1-c1cccc(-c2ccnc(NC(=O)C3CC3)c2)c1` [Example 66], for which the pIC50 is at least 7.00 in assay [1], 5.00 to 6.00 in assay [2], 6.30 to 7.00 in assay [3] and 5.00 to 6.00 in assay [4].
Take `CNC(=O)c1cc(-c2cncc(-c3cc(NC(=O)N4CC[C@H](C(F)(F)F)C4)c(F)cc3C)c2)ccn1` [Example 214]: the pIC50 in assay [1] is 6.00 to 6.30; in assay [2] it was 5.00 to 6.00; in assay [3] it was 5.00 to 6.00; in assay [4] it was 5.00 to 6.00.
